According to patent US6716813B2, “Use of antimicrobial proteins and peptides for the treatment of otitis media and paranasal sinusitis” (priority 2000, dated 2004):
Like-named read-outs stand apart in the source and are kept apart here. Positions of bridges follow the written chain, without caps; N, C: chain ends. No end group written: not given here.

Experiments:
NTHi strain12 = assay type: cell-based, nontypeable Haemophilus influenzae; details: for effect of salt on the growth inhibitory effect against NTHi: 100 mM NaCl in gel
Procedure: (§1) The bacteria used in the following examples were cultured as follows: Stocks of NTHi12 and M. catarrhalis […] (generous gift of Dr. Xin-Xing Gu) were maintained at -80° C. For experiments, the bacteria were plated on chocolate agar and incubated overnight at 37° C. in 5% CO2. A single colony was then picked and transferred to 10 ml of brain heart infusion (BHI, Becton Dickinson, Cockeysville, Md.), supplemented with hemin (10 μg/ml, Sigma, St. Louis, Mo.) and NAD (10 μg/ml, Sigma, St. Louis, Mo.), and allowed to grow overnight. In the morning, 1/10 volume of the overnight culture was transferred to fresh medium and incubated for 3-hours. The subculture was then washed twice with 10 mM sodium phosphate and the O.D. at 620 nm was determined. For the S. pneumoniae serotypes 3 and 6B (generous gift of Dr. Xin-Xing Gu), a 50 μl aliquot of the -80° C. stock was thawed on ice, added to 10 ml of Todd-Hewitt broth (THB, Becton Dickinson, Cockeysville, Md.) and cultured overnight. One tenth of the volume of the overnight culture was then transferred to fresh medium and incubated for 3-hours. The subculture was then washed twice with 10 mM sodium phosphate and the O.D. at 620 nm was determined. The radial assay method of […] and coworkers was used, with minor modifications ([…] et al., 1991). The subcultured bacteria (4×10^6 CFU/10 ml underlay gel) were mixed with melted underlay gel at 42° C. (0.1×culture broth-BHI for NTHi and Moraxella and THB for S. pneumoniae-10 mM sodium phosphate, 0.8% low electroendosmosis (EEO)-type agarose) and poured into 8 cm×8 cm square petri plates. The gel was allowed to solidify in the petri plates and wells were punched out with a calibrated 200 μl micropipette tip, cut off at the 50 μl mark (approximately 3 mm). The antimicrobial peptides and proteins were dissolved in 0.01% acetic acid and 4 μl was added to each well. The plates were then incubated for 3 hours at 37° C. in the 5% CO2 incubator. They were next overlaid with the overlay gel (0.5×culture broth, 10 mM sodium phosphate, 0.8% low EEO-type agarose) and covered. The plates were then allowed to incubate overnight at 37° C. in a 5% CO2. The diameter of the zones of inhibition produced by each of the antimicrobial molecules against the OM pathogens (NTHi, M. catarrhalis and S. pneumoniae) was then measured in three separate experiments and the average and standard deviation were calculated. Physiologically, salt concentrations vary depending on the site. However, typically they can be as high as 150 mM. Thus, the salt sensitivity of the antimicrobial molecules was tested. NaCl was added to the gel in Example 2 to obtain a final concentration of 100 mM.

[1] = tested on: M. catarrhalis strain 035E; assay type: cell-based, Moraxella catarrhalis; details: for Diameter of the inhibition zone, M. catarrhalis: no added NaCl, average of 3 experiments ± SD; for effect of salt on the growth inhibitory effect against M. catarrhalis: 100 mM NaCl in gel
Procedure: as §1

S. pneumoniae serotype 3 [2] = assay type: cell-based, Streptococcus pneumoniae; details: for effect of salt on the growth inhibitory effect against S. pneumoniae serotype 3: 100 mM NaCl in gel
Procedure: as §1

[3] = tested on: S. pneumoniae serotype 6B; assay type: cell-based, Streptococcus pneumoniae; details: for effect of salt on the growth inhibitory effect against S. pneumoniae serotype 6B: 100 mM NaCl in gel
Procedure: as §1

[4] = tested on: non-typeable Haemophilus influenzae (NTHi); assay type: cell-based; details: 10 μg/ml
Procedure: The ability of a few of these innate immune mediators: human milk lysozyme (Lz), human β-defensins (HBD) 1 and 2 and human milk lactoferrin (LF) to inhibit the growth of non-typeable Haemophilus influenzae (NTHi) at other concentrations was also investigated using a different type of assay, a colony formation assay. The molecules were tested separately, as well as in combination, and the effect on NTHi growth was determined using a colony formation assay. […] In previous studies, it was shown that the concentration of lysozyme in middle ear effusion can be as high as 3.7 mg/ml and thus the concentrations used in these studies are well within the physiological range. Incubating the bacteria with 10 μg/ml of either human β-defensin 1 or 2 produced an even more pronounced effect, with close to a 95% reduction in the number of colonies. […] For example, the bacteria may be more sensitive to the antimicrobials in a liquid assay, such as the colony forming assay.

NTHi = assay: ultrastructural analysis (electron microscopy); assay type: cell-based, nontypeable Haemophilus influenzae
Procedure: (§2) […] The bacterial pellets were left in the fixative at 4° C. for 2 hr, post-fixed in 2% osmium tetroxide, dehydrated in ethanol and embedded in Eponate 12 (Ted Pella, Redding, Calif.). Sections were mounted in coated specimen grids, contrasted with uranyl acetate and lead citrate and examined in a transmission electron microscope (CM120 BioTwin, FEI-Philips, Hillsboro, Oreg.) operating at 80 kV. Images were recorded on photographic film and were subsequently digitized.

S. pneumoniae serotype 3 [5] = assay: ultrastructural analysis (electron microscopy); assay type: cell-based, Streptococcus pneumoniae; details: three-hour treatment
Procedure: (§3) Electron microscopy was performed by treating the bacterial cultures with antimicrobial protein or peptide for 3 hours, mixing with an equal volume of 5% buffered glutaradehyde (pH 7.4) and centrifuging (5000×g, for 20 minutes). The bacterial pellets were left in the fixative at 4° C. for 2 hr, post-fixed in 2% osmium tetroxide, dehydrated in ethanol and embedded in Eponate 12 (Ted Pella, Redding, Calif.). Sections were mounted in coated specimen grids, contrasted with uranyl acetate and lead citrate and examined in a transmission electron microscope (CM120 BioTwin, FEI-Philips, Hillsboro, Oreg.) operating at 80 kV. Images were recorded on photographic film and were subsequently digitized.

M. catarrhalis = assay: ultrastructural analysis (electron microscopy); assay type: cell-based, Moraxella catarrhalis
Procedure: as §2

[6] = tested on: S. pneumoniae serotype 6B; assay: ultrastructural analysis (electron microscopy); assay type: cell-based, Streptococcus pneumoniae; details: 10 μg/ml, three-hour treatment
Procedure: as §3

[7] = 40 μg per well, equivalent to 10 mg/ml
[8] = 4 and 10 μg, equivalent to 1 and 2.5 mg/ml

## β-defensin 1 (GNFLTGLGHRSDHYNCVSSGGQCLYSACPIFTKIQGTCYRGKAKCCK; not fully specified; cysteine pairing not given here) [HBD-1, human beta defensin 1, cationic antimicrobial peptide produced by epithelial cells]
NTHi strain12
  effect of salt on the growth inhibitory effect against NTHi: completely blocked
[1]; 10 μg in 4 μl per well
  Diameter of the inhibition zone, M. catarrhalis: 7.7 ± 0.6 mm
[1]
  effect of salt on the growth inhibitory effect against M. catarrhalis: completely blocked
[1]; high dose, 10 μg, equivalent to 2.5 mg/ml
  effect on growth of M. catarrhalis: effective
S. pneumoniae serotype 3 [2]
  effect of salt on the growth inhibitory effect against S. pneumoniae serotype 3: completely blocked
[3]
  effect of salt on the growth inhibitory effect against S. pneumoniae serotype 6B: completely blocked
[4]
  reduction in the number of colonies: ~95%
NTHi; 10 μg/ml, 3 hours
  ultrastructural changes of NTHi: Morphological changes were also apparent

## human lysozyme [hLz]
NTHi strain12
  effect of salt on the growth inhibitory effect against NTHi: completely blocked
NTHi strain12; dose not given
  effect on growth of NTHi: no effect
[1]; 40 μg in 4 μl per well
  Diameter of the inhibition zone, M. catarrhalis: 4 ± 1.7 mm
[1]; [7]
  effect on growth of M. catarrhalis: slight but visible inhibition
[1]
  effect of salt on the growth inhibitory effect against M. catarrhalis: completely blocked
S. pneumoniae serotype 3 [2]
  effect of salt on the growth inhibitory effect against S. pneumoniae serotype 3: completely blocked
S. pneumoniae serotype 3 [2]; dose not given
  effect on growth of S. pneumoniae serotype 3: appeared to enhance the growth
[3]; 40 μg in 4 μl per well, no added NaCl, average of 3 experiments ± SD
  Diameter of the inhibition zone, S. pneumoniae 6B: 5 ± 1.7 mm
[3]; [7]
  effect on growth of S. pneumoniae serotype 6B: slight but visible inhibition
[3]
  effect of salt on the growth inhibitory effect against S. pneumoniae serotype 6B: completely blocked
NTHi; 100 μg/ml, 3 hour
  ultrastructural changes of NTHi: Few completely lysed bacteria were observed
NTHi; 100 μg/ml, 3 hour, listed as human milk lysozyme
  ultrastructural changes of NTHi: extrusion of the outer membrane could clearly be seen
NTHi; 1 mg/ml, 3 hour
  ultrastructural changes of NTHi: blebbing of the membranes with extrusion of the cytoplasmic contents into the blebs
NTHi; one hour treatment
  ultrastructural changes of NTHi, one hour compared with 3 hours: similar
S. pneumoniae serotype 3 [5]; 1 mg/ml
  ultrastructural changes of S. pneumoniae serotype 3: many fewer bacteria appear to be lysed
M. catarrhalis; 1-minute treatment
  ultrastructural changes of M. catarrhalis: formation of blebs

## GIGDPVTCLKSGAICHPVFCPRRYKQIGTCGLPGTKCCKKP (disulfide 8-37, 15-30, 20-38) [HBD-2, β-defensin 2]
NTHi strain12
  effect of salt on the growth inhibitory effect against NTHi: did not inhibit the activity
NTHi strain12; [8]
  effect on growth of NTHi: significantly inhibited the growth
[1]
  effect of salt on the growth inhibitory effect against M. catarrhalis: did not inhibit the activity
[1]; [8]
  effect on growth of M. catarrhalis: significantly inhibited the growth
S. pneumoniae serotype 3 [2]
  effect of salt on the growth inhibitory effect against S. pneumoniae serotype 3: blocked the effect
S. pneumoniae serotype 3 [2]; [8]
  effect on growth of S. pneumoniae serotype 3: significantly inhibited the growth
[3]
  effect of salt on the growth inhibitory effect against S. pneumoniae serotype 6B: blocked the effect
[3]; [8]
  effect on growth of S. pneumoniae serotype 6B: significantly inhibited the growth
[4]
  reduction in the number of colonies: ~95%
NTHi; 10 μg/ml, 3 hours
  ultrastructural changes of NTHi: blebbing of the membranes with extrusion of the cytoplasmic contents into the blebs
NTHi; 10 μg/ml, 3 hours, listed as human β-defensin 2
  ultrastructural changes of NTHi: Morphological changes were also apparent
S. pneumoniae serotype 3 [5]; 10 μg/ml
  ultrastructural changes of S. pneumoniae serotype 3: disappearance of the capsule in certain regions and the lysis of the bacteria
[6]
  ultrastructural changes of S. pneumoniae serotype 6B: damage to the capsule and condensation of the cytoplasmic material
M. catarrhalis; 30-minute incubation
  ultrastructural changes of M. catarrhalis: substantial damage to the cells
